“And” between values parts separate entries of the source, which are not always exact repeats. Identical values can stand only once. Inconclusive results and toxic doses are left out. Rule for the calls: active = survival T/C of 150% or more; inactive = T/C below 125% in these data.
System: CD2F1 mice, L1210 leukemia ip, survival T/C
Experiment: NCI In Vivo Anticancer Drug Screen. Data for tumor model L1210 Leukemia (intraperitoneal) in CD2F1 (CDF1) mice
Settings: higher = longer survival
How it was run: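 Implant tumor; dose compound or vehicle; measure endpoint in both groups; report treated divided by control.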

[1] = endpoint: mean survival time, dose: 100.0 mg/kg/injection, schedule: Q01DX001 (ip), vehicle: saline
[2] = endpoint: mean survival time, dose: 50.0 mg/kg/injection, schedule: Q01DX009 (ip), vehicle: saline with Tween-80
[3] = endpoint: mean survival time, dose: 100.0 mg/kg/injection, schedule: Q04DX002 (ip), vehicle: saline with Tween-80
[4] = endpoint: mean survival time, dose: 200.0 mg/kg/injection, schedule: Q04DX002 (ip), vehicle: saline with Tween-80
[5] = endpoint: mean survival time, dose: 400.0 mg/kg/injection, schedule: Q04DX002 (ip), vehicle: saline with Tween-80

Measured: T/C

COc1cccc(Sc2ccc([N+](=O)[O-])c3no[n+]([O-])c23)c1
inactive: endpoint: median survival time, dose: 1.85 mg/kg/injection, schedule: Q01DX005 (ip), vehicle: saline with Tween-80 102 % of control | endpoint: median survival time, dose: 1.87 mg/kg/injection, schedule: Q01DX005 (ip), vehicle: saline with Tween-80 106 % of control | endpoint: median survival time, dose: 3.75 mg/kg/injection, schedule: Q01DX005 (ip), vehicle: saline with Tween-80 108 % of control and 109 % of control | endpoint: median survival time, dose: 7.5 mg/kg/injection, schedule: Q01DX005 (ip), vehicle: saline with Tween-80 107 % of control and 111 % of control | endpoint: median survival time, dose: 15.0 mg/kg/injection, schedule: Q01DX005 (ip), vehicle: saline with Tween-80 108 % of control | endpoint: median survival time, dose: 15.0 mg/kg/injection, schedule: Q01DX009 (ip), vehicle: saline with Tween-80 102 % of control and 104 % of control | endpoint: median survival time, dose: 30.0 mg/kg/injection, schedule: Q01DX005 (ip), vehicle: saline with Tween-80 102 % of control and 109 % of control | endpoint: median survival time, dose: 30.0 mg/kg/injection, schedule: Q01DX009 (ip), vehicle: saline with Tween-80 101 % of control and 103 % of control | endpoint: median survival time, dose: 60.0 mg/kg/injection, schedule: Q01DX009 (ip), vehicle: saline with Tween-80 96 % of control and 108 % of control | endpoint: median survival time, dose: 120.0 mg/kg/injection, schedule: Q01DX009 (ip), vehicle: saline with Tween-80 100 % of control

c1ccc(C2NC2c2ccccc2)cc1 (configuration not stated)
inactive: endpoint: median survival time, dose: 50.0 mg/kg/injection, schedule: Q04DX002 (ip), vehicle: saline with Tween-80 100 % of control | endpoint: median survival time, dose: 100.0 mg/kg/injection, schedule: Q04DX002 (ip), vehicle: saline with Tween-80 100 % of control | endpoint: median survival time, dose: 200.0 mg/kg/injection, schedule: Q04DX002 (ip), vehicle: saline with Tween-80 100 % of control | endpoint: median survival time, dose: 400.0 mg/kg/injection, schedule: Q04DX002 (ip), vehicle: saline with Tween-80 100 % of control

[CH3][Sb]([CH3])([CH3])([Cl])[Cl]
inactive: endpoint: mean survival time, dose: 50.0 mg/kg/injection, schedule: Q04DX003 (ip), vehicle: saline 105 % of control | endpoint: mean survival time, dose: 100.0 mg/kg/injection, schedule: Q04DX003 (ip), vehicle: saline 101 % of control | endpoint: mean survival time, dose: 200.0 mg/kg/injection, schedule: Q04DX003 (ip), vehicle: saline 101 % of control

CCOC(=O)CNC(=O)c1ccc(N(CCCl)CCCl)cc1
inactive: endpoint: mean survival time, dose: 100.0 mg/kg/injection, schedule: Q04DX003 (ip), vehicle: Klucel (hydroxypropylcellulose) (HPC) 95 % of control | endpoint: mean survival time, dose: 200.0 mg/kg/injection, schedule: Q04DX003 (ip), vehicle: Klucel (hydroxypropylcellulose) (HPC) 96 % of control | endpoint: mean survival time, dose: 400.0 mg/kg/injection, schedule: Q04DX003 (ip), vehicle: Klucel (hydroxypropylcellulose) (HPC) 104 % of control

C[N+](C)(Cc1ccc(F)cc1)C1c2ccccc2-c2ccccc21
inactive: endpoint: mean survival time, dose: 1.56 mg/kg/injection, schedule: Q04DX003 (ip), vehicle: saline 97 % of control | endpoint: mean survival time, dose: 3.13 mg/kg/injection, schedule: Q04DX003 (ip), vehicle: saline 97 % of control | endpoint: mean survival time, dose: 6.25 mg/kg/injection, schedule: Q04DX003 (ip), vehicle: saline 98 % of control

N#CN1CCC2CC3(CCC2C1)OCCO3 (configuration not stated)
inactive: [1] 96 % of control | endpoint: mean survival time, dose: 200.0 mg/kg/injection, schedule: Q01DX001 (ip), vehicle: saline 91 % of control | endpoint: mean survival time, dose: 400.0 mg/kg/injection, schedule: Q01DX001 (ip), vehicle: saline 96 % of control

CC(=O)OCC(=O)C1CCC2C3CCC4CC(OC(C)=O)CCC4(C)C3CCC12C (configuration not stated)
inactive: endpoint: mean survival time, dose: 100.0 mg/kg/injection, schedule: Q01DX001 (ip), vehicle: saline with Tween-80 91 % of control | endpoint: mean survival time, dose: 200.0 mg/kg/injection, schedule: Q01DX001 (ip), vehicle: saline with Tween-80 91 % of control | endpoint: mean survival time, dose: 400.0 mg/kg/injection, schedule: Q01DX001 (ip), vehicle: saline with Tween-80 105 % of control

OC(CC1=NNC(=S)NC1)(C(F)(F)F)C(F)(F)F
inactive: [2] 94 % of control | endpoint: mean survival time, dose: 100.0 mg/kg/injection, schedule: Q01DX009 (ip), vehicle: saline with Tween-80 89 % of control

CC1(OC(=O)c2ccccc2)CC(C)(C)[N+]([O-])=N1 (configuration not stated)
inactive: endpoint: mean survival time, dose: 25.0 mg/kg/injection, schedule: Q01DX009 (ip), vehicle: Klucel (hydroxypropylcellulose) (HPC) 96 % of control | endpoint: mean survival time, dose: 50.0 mg/kg/injection, schedule: Q01DX009 (ip), vehicle: Klucel (hydroxypropylcellulose) (HPC) 96 % of control | endpoint: mean survival time, dose: 100.0 mg/kg/injection, schedule: Q01DX009 (ip), vehicle: Klucel (hydroxypropylcellulose) (HPC) 100 % of control | endpoint: mean survival time, dose: 200.0 mg/kg/injection, schedule: Q01DX009 (ip), vehicle: Klucel (hydroxypropylcellulose) (HPC) 91 % of control

CC(=O)N(Cc1ccccn1)N=O
inactive: endpoint: mean survival time, dose: 75.0 mg/kg/injection, schedule: Q01DX001 (ip), vehicle: water 112 % of control | endpoint: mean survival time, dose: 150.0 mg/kg/injection, schedule: Q01DX001 (ip), vehicle: water 122 % of control

NC(=O)c1[nH]nc(C2OC(CO)C(O)C2O)c1O (configuration not stated)
inactive: endpoint: mean survival time, dose: 0.25 mg/kg/injection, schedule: Q04DX003 (ip), vehicle: saline 105 % of control | endpoint: mean survival time, dose: 0.5 mg/kg/injection, schedule: Q04DX003 (ip), vehicle: saline 97 % of control | endpoint: mean survival time, dose: 1.0 mg/kg/injection, schedule: Q04DX003 (ip), vehicle: saline 96 % of control | endpoint: mean survival time, dose: 2.0 mg/kg/injection, schedule: Q04DX003 (ip), vehicle: saline 97 % of control | endpoint: median survival time, dose: 0.25 mg/kg/injection, schedule: Q01DX009 (ip), vehicle: saline 98 % of control | endpoint: median survival time, dose: 0.5 mg/kg/injection, schedule: Q01DX009 (ip), vehicle: saline 111 % of control | endpoint: median survival time, dose: 1.0 mg/kg/injection, schedule: Q01DX009 (ip), vehicle: saline 121 % of control | endpoint: median survival time, dose: 1.0 mg/kg/injection, schedule: Q04DX003 (ip), vehicle: saline 102 % of control | endpoint: median survival time, dose: 1.88 mg/kg/injection, schedule: Q04DX003 (ip), vehicle: saline 117 % of control | endpoint: median survival time, dose: 2.0 mg/kg/injection, schedule: Q01DX009 (ip), vehicle: saline 120 % of control | endpoint: median survival time, dose: 3.75 mg/kg/injection, schedule: Q04DX003 (ip), vehicle: saline 110 % of control | endpoint: median survival time, dose: 4.0 mg/kg/injection, schedule: Q01DX009 (ip), vehicle: saline 110 % of control | endpoint: median survival time, dose: 7.5 mg/kg/injection, schedule: Q04DX003 (ip), vehicle: saline 116 % of control | endpoint: median survival time, dose: 8.0 mg/kg/injection, schedule: Q01DX009 (ip), vehicle: saline 88 % of control | endpoint: median survival time, dose: 8.0 mg/kg/injection, schedule: Q04DX003 (ip), vehicle: saline 117 % of control and 120 % of control | endpoint: median survival time, dose: 15.0 mg/kg/injection, schedule: Q04DX003 (ip), vehicle: saline 118 % of control | endpoint: median survival time, dose: 16.0 mg/kg/injection, schedule: Q01DX009 (ip), vehicle: saline 101 % of control | endpoint: median survival time, dose: 16.0 mg/kg/injection, schedule: Q04DX003 (ip), vehicle: saline 111 % of control | endpoint: median survival time, dose: 30.0 mg/kg/injection, schedule: Q04DX003 (ip), vehicle: saline 97 % of control | endpoint: median survival time, dose: 32.0 mg/kg/injection, schedule: Q04DX003 (ip), vehicle: saline 118 % of control

CNC(=O)OCC1C(=O)C2C(CN(C)C3=C1C(=O)C(N)=C(C)C3=O)N2C (configuration not stated)
inactive: endpoint: mean survival time, dose: 83.0 mg/kg/injection, schedule: Q01DX001 (ip), vehicle: carboxymethylcellulose (CMC) 106 % of control | endpoint: mean survival time, dose: 125.0 mg/kg/injection, schedule: Q01DX001 (ip), vehicle: carboxymethylcellulose (CMC) 102 % of control | endpoint: mean survival time, dose: 187.0 mg/kg/injection, schedule: Q01DX001 (ip), vehicle: carboxymethylcellulose (CMC) 118 % of control

[C-]#[O+].[Cl][Sn]([Cl])[Cl].[Cl][Sn]([Cl])[Cl].[Pt].c1cnc2c(c1)ccc1cccnc12
inactive: endpoint: median survival time, dose: 3.12 mg/kg/injection, schedule: Q04DX003 (ip), vehicle: saline with Tween-80 113 % of control | endpoint: median survival time, dose: 6.25 mg/kg/injection, schedule: Q04DX003 (ip), vehicle: saline with Tween-80 109 % of control | endpoint: median survival time, dose: 12.5 mg/kg/injection, schedule: Q04DX003 (ip), vehicle: saline with Tween-80 109 % of control | endpoint: median survival time, dose: 100.0 mg/kg/injection, schedule: Q04DX003 (ip), vehicle: saline with Tween-80 106 % of control

CC1(C)N=C(N)N=C(N)N1c1ccc(OCCCCNC(=O)c2ccc(S(=O)(=O)F)cc2)c(Cl)c1
inactive: endpoint: mean survival time, dose: 12.5 mg/kg/injection, schedule: Q01DX009 (ip), vehicle: saline with Tween-80 110 % of control | endpoint: mean survival time, dose: 25.0 mg/kg/injection, schedule: Q01DX009 (ip), vehicle: saline with Tween-80 110 % of control | [2] 119 % of control and 109 % of control | endpoint: mean survival time, dose: 50.0 mg/kg/injection, schedule: Q04DX002 (ip), vehicle: saline with Tween-80 104 % of control | [3] 104 % of control | [4] 104 % of control

CC(Nc1ccccc1)C(=O)N1CCC(Nc2ccccc2)CC1 (configuration not stated)
inactive: [3] 94 % of control | [4] 94 % of control | [5] 90 % of control

Cc1nnn2ccccc12
inactive: [1] 95 % of control

O=C1C=C(O)C2C(=O)C1C1/C(=[N+](/[O-])O)C=C([N+](=O)[O-])C2C1[N+](=O)[O-] (configuration not stated)
inactive: [3] 98 % of control | [4] 110 % of control | [5] 98 % of control

Source: PubChem BioAssay AID256 (DTP/NCI, 2004)
